Assay results reported in PMC7281206, “Cysteine Cathepsins Inhibition Affects Their Expression and Human Renal Cancer Cell Phenotype” (Cancers, 2020).
*: point of attachment. CH2F = FC*

Legend:
SNAIL1 in 769-P cells = assay: SNAIL1 protein expression (western blot), 769-P; format: cell-based, human; conditions: 72 h
Description: These properties could be the result of the modulation of the effectors controlling EMT, as previously shown in other tumor models. To test this hypothesis, the cells were treated with the inhibitors for 24, 48, and 72 h by changing the media every day, and they were tested for E-cadherin and SNAIL1 expression (Figure 6; detail information of western blots can be seen in Supplementary Figure S7). Figure 6 Effects of the peptides on E-cadherin and SNAIL1 protein expression: (a,b) protein expression of E-cadherin and SNAIL1 in 769-P and (c,d) A498 cells after 24, 48, and 72 h of treatment with the peptides. Data are represented as mean ± SD of at least three replicates. Significance was calculated through one-way ANOVA, followed by Dunnet’s test. Cells were seeded in RPMI containing 10% FBS and cultured for 24 h. Next, 30 µM of inhibitors were added to the culture medium and incubated for 24, 48, and 72 h. Control cells were treated with 0.01% DMSO. At all time points the samples were lysed in 50 mM Tri-HCl (pH 8.0), 100 mM NaCl, 0.5% NP-40, 1% Triton X-100, 1× protease inhibitor cocktail (ThermoFisher, Waltham, MA, USA). The 50 µg of protein lysates were separated by electrophoresis on a 12% SDS-PAGE gel and transferred to the PFDF membranes. […] After an additional wash (three times with PBS), reactive bands were detected by chemiluminescence (Bio-Rad, Irvine, CA, USA). […]

[1] = test system: A498 cells (endolysosomal compartment); assay: LysoTracker red fluorescence, A498; format: cell-based, human; conditions: 20 μM; 48 h; 75 nM LysoTracker red, 1 h, Ex/Em 570/600
Description: First, 1.5 × 10^4 769-P or A498 cells were seeded in 96-well plates in full medium. The day after the cells were treated with the peptides for 3 consecutive days to establish 24, 48, and 72 h groups of treatment. LysoTracker Red fluorescence intensity was measured via microplate reader following the protocols described in [75] and applying Ex/Em = 570/600. The cells were incubated with 75 nM of LysoTracker red for 1 h. […]
Figure S6. The effect of the peptide inhibitors on human 769‐P and A498 renal cancer cell on
lysosomes integrity. (a) 769‐P and (b) A498 cells were treated with increasing doses of Ac‐PLVE‐FMK
(red bars) and Ac‐VLPE‐FMK (blue bars) (2.5–250 μM). NR uptake was measured after 24, 48, and 72
h via MTT assay. (c) LysoTracker red evaluation in 769‐P and (d) A498 cells after 24, 48, and 72 h with
the inhibitors (20 μM). Data represent the mean (± S.D.) of at least three independent experiments,
each performed in triplicate. […]

Row | Substance | SNAIL1 protein expression (SNAIL1 in 769-P cells) | LysoTracker red fluorescence [1]
1 | Ac-PLVE-CH2F [Ac-PLVE-FMK] | increased significantly at 72 h only in the case of 769P cells treated with AC-PLVE-FMK | decreasing
2 | Ac-VLPE-CH2F [Ac-VLPE-FMK] | dropped to values more similar to the control | decreasing
